Results from patent US7554012B2, “Plants and plant cells exhibiting resistance to AMPA, and methods for making the same” (priority 1998, dated 2009).
Several values for one entry are separate records, joined by “and”; a condition that tells them apart may be missing. Identical values can stand only once. Like-named read-outs stand apart in the source and are kept apart here.

Columns and labels:
[1] = system: E. coli JM101; assay: Cell growth in MOPS medium with AMPA; format: cell-based; parameters: key: — indicates no measurable growth; details: 0.2 mM AMPA, growth period 54 hrs
Method: The phn operon is induced when E. coli is grown in media lacking or limited in a phosphate source. Therefore, E. coli GB993 was compared to the parental JM101 strain when grown in MOPS minimal media. GB993 and its mpu− parent strain, JM101, were grown under identical conditions, varying only the amount of phosphate available or supplemented with AMPA. 50 ml cultures were grown in duplicate in 250 ml sidearm-Erlenmeyer flasks with continuous shaking at 37° C. in MOPS medium (5 mls of 10×MOPS salts, 0.5 ml 1 mg/ml thiamin, 0.5 ml 20% glucose, to 50 mls with dH2O) containing 0.1 or 5 mM phosphate, or 0.1 mM phosphate supplemented with approximately 0.2 mM AMPA, pH 7.0. The cultures were generally grown to about 220 Klett units and the cells were pelleted by centrifugation, resuspended in 1.5 mls of 10 mM Tris/1 mM DTT, and lysed with two passes through a French press at […]. Lysates were centrifuged to remove debris and the supernatant passed through a G-50 column equilibrated with 50 mM Tris pH 7.0.

[2] = system: Wheat immature embryos; assay: Wheat embryo germination assay; format: in vivo; details: for Germinating root length / Germinating shoot length: ten days
Method: Wheat immature embryos were exposed to different concentrations of AMPA and N-acetyl-AMPA in a wheat embryo germination assay. MMSO base media was prepared containing 40 grams per liter maltose, 2 grams per liter GELRITE™, MS salts, and vitamins. Salts, vitamins, and maltose were dissolved in 3500 ml water and the pH was adjusted to 5.8. 500 ml was dispensed into a separate bottle along with 1 gram of GELRITE™ and autoclaved for 17 minutes. After the medium had cooled to about 45° C., AMPA or N-acetyl-AMPA was added to a defined concentration. The mixture was poured into six square Sundae cups under sterile conditions and allowed to solidify.
Immature wheat embryos were isolated from twenty day old seedlings (after anther formation) and inoculated into each MMSO media. Each Sundae cup contained nine immature embryo's. Three separate plates were used for each concentration of AMPA (0, 0.1, 0.15, 0.2, 0.25, 0.3, and 1.0 mM) or N-acetyl-AMPA (0, 0.1, 0.3, 1.0, and 3.0 mM). Sundae cups were incubated for ten days and the length of roots and shoots were determined and compared.

[3] = molecular target: PhnO enzyme (Escherichia coli, UniProt P16691, P2A)
Method: The apparent Km (Km) and Vmax (Vmax) of PhnO enzyme were determined for the substrates aminomethlyphosphonate and acetyl-CoA. Determination of the PhnO Km and Vmax were made by endpoint kinetic analyses, determining the enzyme velocity in consuming each substrate at varying substrate concentrations, and plotting the inverse of the enzyme velocity versus the inverse of the substrate concentration to produce a Lineweaver-Burk plot of enzyme kinetics. The conversion of [^14C]-AMPA to N-acetyl-[^14C]-AMPA was monitored as in example 2, using enzyme in a desalted crude lysate of E. coli expressing phnO from pMON15032, produced as in example 4. […] Enzyme reactions were incubated at 37° C. for 5 minutes and quenched with 1 volume of 100 mM sodium acetate (NaOAc), pH 4.4, in ethanol. Samples were analyzed by HPLC to determine the amount of [^14C]-AMPA converted to N-acetyl-[^14C]-AMPA.

[4] = system: male gametes; details: under optimal conditions; cited from earlier work
[5] = [^14C]-glyphosate in growth medium exposed to light
Method: Growth medium to which [^14C]-glyphosate was added was treated to the same conditions as wheat plants, ie, the medium was exposed to incident light intensities which plants received.

[6] = system: recombinant cotton line 4416; assay: [^14C]-glyphosate metabolism in cotton line 4416; format: in vivo, cotton (Gossypium hirsutum L.); details: line 4416 plants; listed as [^14C]-Glyphosate
Method: Coker 312 glyphosate resistant recombinant cotton line 4416 was selected as a glyphosate resistant cotton line after transformation with pMON10149, a triple gene Agrobacterium tumefaciens mediated double border plant transformation vector containing chloroplast targeted EPSPS, GOX, and PhnO, each expressed independently from separate 35S promoters. Several 4416 R3 plants were raised from R2 seed. One leaf of each plantlet at the three or four stage was treated with a mixture of ROUNDUP ULTRA™ commercial herbicide mixture (Lot No. GLP-9701-7428-F) which had been fortified with [^14C]-glyphosate (Code No. C-2251). […] The treatment solution consisted of approximately 38 μL containing 1.60×10^6 dpm with a [^14C]-glyphosate specific activity of 1.713×10^3 dpm/μg glyphosate acid. Three or seven days after topical application the treated leaves were rinsed with water, frozen in liquid nitrogen, fractured with a spatula and then ground using a TEKMAR™ tissuemizer in 10 mL of water. The leaf extracts were adjusted to pH 3.5-4.0 with 1N HCl and approximately 4-8000 dpm were analyzed for the presence of [^14C]-metabolites by HPLC with liquid scintillation vial collection and detection (HPLC/LSC) as described in example 2. The new growth including the meristem and new leaves that emerged following topical application were also extracted and analyzed for [^14C]-metabolites.

[7] = system: recombinant cotton line 3753 (EPSPS/GOX); assay: [^14C]-glyphosate metabolism in cotton line 3753; format: in vivo, cotton (Gossypium hirsutum L.); details: EPSPS/GOX Plants
Method: The metabolism of [^14C]-glyphosate in recombinant cotton lines 4268 (GOX/PhnO) and 3753 (EPSPS/GOX) was also studied. Plants in this study were treated as indicated above for cotton line 4416, by applying droplets of ROUNDUP ULTRA fortified with [^14C]-glyphosate to a single leaf on each plant at the three to four leaf stage. Treated leaves were harvested and rinsed with water, then ground and extracted, and extracts were analyzed by HPLC as described above for the presence of [^14C]-glyphosate, [^14C]-AMPA, and N-acetyl-[^14C]-AMPA. New growth, including the meristem and new leaves that emerged following application were also extracted and analyzed.

[8] = system: female gametes; details: under optimal conditions; cited from earlier work
[9] = AMPA substrate 200 nm (nanomoles)

PhnO enzyme, sequence (P16691 whole entry P2A): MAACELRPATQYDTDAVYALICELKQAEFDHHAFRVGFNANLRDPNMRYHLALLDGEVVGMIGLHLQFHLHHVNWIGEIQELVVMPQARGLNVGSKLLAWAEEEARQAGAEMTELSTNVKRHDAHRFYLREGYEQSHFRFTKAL

NCP(=O)(O)O [AMPA, N-aminomethyl phosphonic acid]
Harvest Density [1]: — | Germinating root length ([2]; 0.10 mM): 8.0 ± 2.0 cm | Germinating shoot length ([2]; 0.10 mM): 11.7 ± 2.5 cm | Germinating root length ([2]; 0.15 mM): 6.3 ± 1.7 cm | Germinating shoot length ([2]; 0.15 mM): 11.3 ± 2.1 cm | Germinating root length ([2]; 0.20 mM): 4.6 ± 2.1 cm | Germinating shoot length ([2]; 0.20 mM): 9.2 ± 1.8 cm | Germinating root length ([2]; 0.25 mM): 3.1 ± 1.6 cm | Germinating shoot length ([2]; 0.25 mM): 8.5 ± 1.8 cm | Germinating root length ([2]; 0.30 mM): 2.6 ± 1.6 cm | Germinating shoot length ([2]; 0.30 mM): 6.6 ± 1.8 cm | germination of immature embryos ([2]; 1.00 mM): eliminated the germination | Germinating root length ([2]; 1.00 mM): 0.4 ± 0.1 cm | Germinating shoot length ([2]; 1.00 mM): 0.9 ± 0.1 cm | concentrations not substantially inhibitory to growth and elongation of immature embryos ([2]; in vivo): under 0.2 mM | concentrations severely inhibitory to both shoot and root elongation ([2]; in vivo): above 0.2 mM | % Turnover [3, 9]: 39.5% | Velocity [3, 9]: 79 nm per minute per mg of protei | % Turnover ([3]; AMPA substrate 400 nm): 35.1% | Velocity ([3]; AMPA substrate 400 nm): 140 nm per minute per mg of protei | % Turnover ([3]; AMPA substrate 800 nm): 32.9% | Velocity ([3]; AMPA substrate 800 nm): 263 nm per minute per mg of protei | % Turnover ([3]; AMPA substrate 1200 nm): 26.8% | Velocity ([3]; AMPA substrate 1200 nm): 322 nm per minute per mg of protei | % Turnover ([3]; AMPA substrate 1600 nm): 26.2% | Velocity ([3]; AMPA substrate 1600 nm): 426 nm per minute per mg of protei | % Turnover ([3]; AMPA substrate 2000 nm): 22.1% | Velocity ([3]; AMPA substrate 2000 nm): 442 nm per minute per mg of protei | % Turnover ([3]; AMPA substrate 2400 nm): 19.2% | Velocity ([3]; AMPA substrate 2400 nm): 461 nm per minute per mg of protei | % Turnover ([3]; AMPA substrate 2800 nm): 17.6% | Velocity ([3]; AMPA substrate 2800 nm): 493 nm per minute per mg of protei | % Turnover ([3]; AMPA substrate 3200 nm): 17.3% | Velocity ([3]; AMPA substrate 3200 nm): 554 nm per minute per mg of protei | % Turnover ([3]; AMPA substrate 3600 nm): 14.5% | Velocity ([3]; AMPA substrate 3600 nm): 522 nm per minute per mg of protei | % Turnover ([3]; AMPA substrate 4000 nm): 13.6% | Velocity ([3]; AMPA substrate 4000 nm): 544 nm per minute per mg of protei | % Turnover ([3]; AMPA substrate 6000 nm): 12.7% | Velocity ([3]; AMPA substrate 6000 nm): 762 nm per minute per mg of protei | % Turnover ([3]; AMPA substrate 7600 nm): 10% | Velocity ([3]; AMPA substrate 7600 nm): 760 nm per minute per mg of protei | apparent Vmax ([3]; AMPA substrate, Lineweaver-Burk plot): about 824 U/mg protein | Km ([3]; read-out: apparent Km of PhnO for AMPA as a substrate, Lineweaver-Burk plot of Table 8 data): ~9 mM

N-phosphono-methyl-glycine [Glyphosate]
male gametes killed [4]: about 95% | Acetyl-[^14C]-AMPA, of summed [^14C] peaks [5]: 2% and 0% and 0.2% | [^14C]-Glyphosate, of summed [^14C] peaks ([5]; same light exposure as plants): 48% and 87% and 60% | % [^14C] metabolite in Glyphosate Treated Leaf Extract: AMPA [6]: 2.1% and 2.0% and 1.6% and 2.2% and 2.5% | % [^14C] metabolite in Glyphosate Treated Leaf Extract: N-Acetyl-AMPA [6]: 27-74% | % [^14C] metabolite in New Growth Extract: AMPA [6]: 0.2% and 0.5% and 2.5% | % [^14C] metabolite in New Growth Extract: Glyphosate [6]: greater than 90% | % [^14C] metabolite in New Growth Extract: N-Acetyl AMPA [6]: greater than 90% | % [^14C] metabolite in New Growth Extract: N-Acetyl-AMPA [7]: 1.9% | % [^14C] metabolite in Glyphosate Treated Leaf Extract: AMPA ([7]; listed as [^14C]-Glyphosate): 6-27% | % [^14C] metabolite in Glyphosate Treated Leaf Extract: Glyphosate ([7]; listed as [^14C]-Glyphosate): 59.8% and 92.7% and 81.2% and 86.2% | % [^14C] metabolite in Glyphosate Treated Leaf Extract: N-Acetyl-AMPA ([7]; listed as [^14C]-Glyphosate): 0.8% and 1.0% | % [^14C] metabolite in New Growth Extract: AMPA ([7]; listed as [^14C]-Glyphosate): 72-86% | % [^14C] metabolite in New Growth Extract: Glyphosate ([7]; listed as [^14C]-Glyphosate): 93% | female gametes left capable of fertilization [8]: 40-60%
